Source: patent US10947260B2, “Phosphinolactone derivatives and pharmaceutical uses thereof” (INSTITUT NATIONAL DE LA SANTE ET DE LA RECHERCHE MEDICALE …, priority 2016, dated 2021)

How the values were obtained:
Assay type in all cases: in vivo
mice = test: Forced swim test; conditions: 5 mg/kg
Method: FIG. 13: Assays of compound 3b as positive modulator of the sigma-1 protein. […] Male Swiss mice aged 7 weeks (n=10-12 per group) were forced to swim for 15 min on Day 1 and 6 min on Day 2. They were given NE-100 (10 mg/kg ip), 10 min before compound 3b (10 mg/kg ip) and 20 min before the session of Day 2. Immobility was measured over the last 5 minutes of the session. The vehicle solution was distilled water. F(3.42)=4.45, p<0.01; **p<0.01 vs. group V/V, ##p<0.01 vs. group V/3b, Dunnet test. […] Wild-type mice (Wt, n=14-15) and S1R KO mice (n=9-10) were forced to swim 15 min on Day 1 and 6 min on Day 2. They were given compound 3b (10 mg/kg ip) 20 min before the session on Day 2. Immobility was measured during the last 5 minutes of the session. The vehicle solution was distilled water. F(3.49)=6.64, p<0.001; **p<0.01 vs. group Wt/V, Dunnett test. […] Male Swiss mice aged 7 weeks (n=8-23 per group) were forced to swim for 15 min on Day 1 and 6 min on Day 2. They were given igmesine (10, 30 mg/kg ip) and/or compound 3b (10 mg/kg ip) 20 min before the session on Day 2. NE-100 (10 mg/kg ip) was injected 10 min before igmesine and compound 3b. Immobility was measured during the last 5 minutes of the session. The vehicle solution was distilled water. F(6.90)=5.59, p<0.0001; ***p<0.001 vs. group V, ##p<0.01 vs. group V/Igmesine (10)+3B (5), Dunnett test.

APPSwe mice = test: Biochemical analyses in hippocampus of APPSwe mice; conditions: 1 mg/kg/j IP
Method: FIG. 12: Biochemical analyses of the effect of treatments with compound 3b (a) or 3c (b) in the hippocampus of APPSwe mice. Oxidative stress was measured via the level of peroxidation of membrane lipids at (a), or DCF fluorescence at (b). The expression levels of synaptophysin, Bax, IL1β and TNFα were measured using commercial Elisa kits. The values are given as % of the control group WT/V. N=6-8 per group. *p<0.05, **p<0.01 compared with group WT/V; #p<0.05, ##p<0.01 compared with group APPSwe/V; Student t-test.
After sacrifice, the hippocampus and brain cortex of the mice were dissected and frozen to −80° C. until use. The accumulation of reactive oxygen species was measured by fluorescence of 2′,7′-dichlorofluorescein (DCF) in the hippocampus of the mice ex vivo. DCF diacetate (0.5 μM) (Sigma-Aldrich) was added to SDS-soluble fractions of hippocampus extract. After 30 min at 37° C., DCF fluorescence was quantified (excitation at 485 nm, emission at 530 nm) in a Fluoroskan Ascent spectrofluorometer (Thermo Scientific, Waltham, USA), and normalized with the protein concentrations of the extracts.
Peroxidation of membrane lipids was measured using the cumene/xylenol method. The hippocampi were homogenized in methanol (1:10), centrifuged at 1 000 g for 5 min and the supernatant collected. Aliquots were added to a solution containing 1 mM FeSO4, 0.25 m H2SO4, 1 mM xylenol orange and incubated for 30 min at ambient temperature. Absorbance was measured at 580 nm (A5801), then 10 μl of 1 mM cumene hydroperoxide (CHP) was added and the sample incubated 30 min at ambient temperature. Absorbance was measured at 580 nm (A5802). Lipid peroxidation level was determined as CHP equivalents: CHP eq.=A5801/A5802×[CHP (nmol)]×dilution, and calculated in CHP eq. per tissue weight expressed as % of the control group.
Various biochemical parameters were analysed in the hippocampus of APPSwe mice after treatments with 3b, 2 mg/kg/j IP, or 3c, 1 mg/kg/j IP (FIG. 12).

[1] = system: mice treated with Aβ25-35; test: Passive avoidance test, Aβ25-35 model; conditions: 0.1 and 0.3 mg/kg IP; Days 8 and 9
Method: The amyloid-β[25-35] peptide (Aβ25-35) and control peptide (Sc.Aβ) were obtained from Genepep (Saint-Jean-de-Vedas, France). They were solubilized in injectable distilled water at a concentration of 3 mg/ml and stored at −20° C. Before injection, the peptides were incubated at 37° C. for 4 days, which enabled the Aβ25-35 peptide but not the Sc.Aβ, to form oligomers. They were administered via intracerebroventricular route (ICV). The animals were anesthetized by inhaling 2.5% isoflurane (TEM) and were given 3 μl of peptide solution via direct ICV route (Haley and McCormick's method). For injection a 10 μl Hamilton micro-syringe was used at a flow rate of 1 μl/min.
The apparatus contained two compartments (15×20×15 cm in height) with one light part having walls in white PVC and the other dark with walls in black PVC and a grid floor. A vertical sliding door separated each compartment. A 60 W lamp was positioned 40 cm above the white compartment during the experiment. Electrical shocks (0.3 mA for 3 s) were delivered to the grid floor by means of a scrambled shock generator (Lafayette Instruments, Lafayette, United States). The vertical sliding door was first closed during the training session. […] Step-through latency (STL) i.e. the time taken to enter the dark compartment and the number of cries, were recorded. […] Step-through latency was recorded up to 300 s. […]

With `CC1(C)COP(=O)(c2cccc(Cl)c2)C(C)(C)N1` (racemic) [Compound 3b, (±)-2-(3-Chlorophenyl)-2-oxo-3,3,5,5-tetramethyl-[1,4,2]-oxazaphosphinane] the “activity in forced swim test” value (mice) was “not active”.
With `CC1(C)COP(=O)(c2ccc(Cl)cc2)C(C)(C)N1` (racemic) [Compound 3c, (±)-2-(4-Chlorophenyl)-2-oxo-3,3,5,5-tetramethyl-[1,4,2]-oxazaphosphinane] the “IL1β level, hippocampus” value (APPSwe mice) was “not”, the “expression of Bax, hippocampus” value (APPSwe mice) was “caused a decrease” and the “oxidative stress (DCF fluorescence), hippocampus” value (APPSwe mice) was “not”. The “synaptophysin level, hippocampus” value (APPSwe mice) was “not” and the “long-term memory response (passive avoidance step-through latency)” value [1] was “appeared effective”.
